This series in a line: Normal safety test.

As to `O[C@@H]1CO[C@H]2[C@@H]1OC[C@@H]2O` [isosorbide], the Normal safety test result was “no problem occurred”.

Values taken from patent publication US7964638B2, “Skin cosmetic and wrinkle-reducing agent” (Kao Corporation, priority 2005, dated 2011).
